From US5604227A, “Pyridazinedione compounds useful in treating neurological disorders” (Imperial Chemical Industries PLC, priority 1991, dated 1997)
pIC50: −log10 of the molar value. Read-outs that look alike come from different tables or passages of the source.

Tests used:
NMDA receptor [1] = details: reference antagonists, general statement; cited from earlier work
[2] = system: neuronal damage in the hippocampus; assay: gerbil ischemic model, bilateral carotid occlusion (Test D); assay type: in vivo, Mongolian gerbils; details: 10 mg/Kg ip, pre- and post-occlusion (e.g. 45 min before and 5 min after)
Description: (§1) The actions of compounds according to the invention as antagonists at the glycine receptor of the NMDA receptor complex can be shown by one or more standard tests such as the [^3 H]-glycine binding assay (Test A), by functional assays in vitro such as tests for measuring glutamate-evoked contractions of the guinea pig ileum (Test B) and/or tests for measuring antagonism of NMDA-induced evoked response in hippocampal slices (Test C), and by tests in vivo such as ischemia induced by carotid occlusion in the gerbil model (Test D).
When testing in vivo using the gerbil ischemic model, adult female Mongolian gerbils (50-70 g) are anesthetized with 2 to 3 % halothane. The bilateral common carotid arteries at the neck are exposed and occluded with microaneurysm clips. After 10 min (unless specified), the clips are removed and the blood flow through the carotid arteries is restored and the skin is sutured. Test compounds are administered intraperitoneally both pre- and post-occlusion, for example 45 minutes before and 5 minutes after occlusion of the carotid arteries. Sham-operated animals are treated in the same manner except that the arteries are not clamped. Gross behavioral observations along with motor activity are recorded for 2 hr on the first (24 hr) day following the occlusion. After 4 days, subjects are sacrificed (decapitation), brains are removed, fixed, sectioned and stained with hematoxylin/eosin and cresyl violet.
The brain sections are rated for neuronal damage in the hippocampus using the following rating scale:
1=slight damage (up to 25%)--restricted to CA1/subiculum border
2=moderate damage (up to 50%)--obvious damage, restricted to less than half of CA1 field
3=marked damage (up to 75%)--involving greater than half of CA1 field
4=damage extending beyond CA1 field
Sections (7 micron) are evaluated from each brain. […] The average brain damage rating score for each group is recorded, and the damage scores of the drug treated group are compared to the vehicle-treated group using Wilcoxon-Rank Sum test. […]

[3] = target: glycine receptor of the NMDA receptor complex (Cavia porcellus, UniProt A0A286XML8); assay: glutamate-evoked contractions of the guinea pig ileum (Test B); assay type: cell-based; details: 100 micromolar glutamate-evoked contractions, compound 5 min before glutamate
Description: as §1
For glutamate-evoked contractions of the guinea pig ileum, the methodology is as described previously (Luzzi et. al., Br. J. Pharmacol., 95, 1271-1277 (1989)). The longitudinal muscle and associated myenteric plexus are removed and placed in oxygenated modified Krebs-Henseleit solution (118 millimolar NaCl, 4.7 millimolar KCl, 2.5 millimolar CaCl, 1.2 millimolar KH2 PO4, 25 millimolar NaHCO3, and 11 millimolar glucose). Tissues are suspended on glass rods in organ baths under a resting tension of 0.5 g. After an initial depolarization with 80 millimolar potassium ion to remove possible blockade of the NMDA receptor channel complex with magnesium, twitch responses are evoked with 100 micromolar glutamate. Isometric mechanical responses are recorded. Tissues are equilibrated for at least 2 hours prior to addition of compounds.
A dose response curve for the effect of the unknown on the magnitude of the glutamate-evoked contractions is generated. Glutamate-evoked contractions are generated at 20 minute intervals, with the test compound added 5 minutes before the glutamate. The magnitude of the contraction with each dose of the unknown is expressed relative to the control, the third contraction evoked by 100 micromolar glutamate alone in the same tissue bath. The IC50 is obtained from a least-squares regression of a logit-log transformation of the data.
After the last contraction for the dose-response curve, 100 micromolar glycine is added to the bath 10 minutes after the previous addition of glutamate. […]

[4] = target: glycine receptor of the NMDA receptor complex; assay: [3H]-glycine binding assay (Test A); parameters: species or system rat (Sprague-Dawley); details: [3H]-glycine 20 nM, rat cortex/hippocampus membranes, pH 7.1, 30 min, 4° C.
Description: as §1
In the [^3 H]-glycine binding assay, neuronal synaptic membranes are prepared from adult (about 250 g) male Sprague-Dawley rats. Freshly dissected cortices and hippocampi are homogenized in 0.32M sucrose (110 mg/mL). Synaptosomes are isolated by centrifugation (1000 xg, 10 min), the supernatant is pelleted (20,000 xg, 20 min) and resuspended in double-distilled water. The suspension was centrifuged for 20 minutes at 8,000 xg. The resulting […] and bully coat are washed twice (48,000 xg, 10 mins, resuspension in double-deionized water). The final pellet is quickly frozen (dry ice/ethanol bath) under double-deionized water and stored at -70° C.
On the day of the experiment, thawed synaptic membranes are homogenized with a Brinkmann Polytron (tm, Brinkmann Instruments, Westbury, N.Y.) tissue homogenizer in 50 millimolar tris(hydroxymethyl)aminomethane citrate, pH 7.1. The membranes are incubated with 0.04% Sufact-AMPS X100 (tm, Pierce, Rockford, Ill.) in buffer for 20 minutes at 37° C. and washed six times by centrifugation (48,000 xg, 10 min) and resuspended in buffer. The final pellet is homogenized at 200 mg wet weight/mL of the buffer for the binding assay.
For [^3 H]-glycine binding at the N-methyl-D-aspartate receptor, 20 nanomolar [^3 H]-glycine (40-60 Ci/mmol, New England Nuclear, Boston, Mass.) is incubated with the membranes suspended in 50 millimolar tris (hydroxymethyl)aminomethane citrate, pH 7.1 for 30 minutes at 4° C. […] Radioactivity is estimated by liquid scintillation counting. […]

NMDA receptor [5] = assay: hippocampal slice test (HST), antagonism of NMDA-induced evoked response (Test C); assay type: cell-based, rat (Sprague-Dawley); details: 5 μM, 0 Mg++
Description: as §1
The characterization of a compound as a glycine antagonist in the hippocampal slice test (HST) is dependent on (1) the ability of the compound to inhibit NMDA receptor-mediated synaptic transmission in hippocampal slices and (2) the subsequent reversal of these inhibitory effects by D-serine.
The procedure for the HST is as follows. Transverse hippocampal slices are obtained from male Sprague-Dawley rats weighting 80-150 gm. […]
For the electrophysiology part of the experiments, bipolar tungsten stimulating electrodes are positioned in the stratum radiatum of the CA3 cell body region of the hippocampus and a single-barrel glass microelectrode filled with Krebs-Ringer solution is positioned in the CA1 cell body region. Low frequency stimulation is then applied to area CA3 which evokes a primary population spike (PS) recorded from CA1. […]

SMILES	reversal of the inhibition by D-serine (NMDA receptor [1])	neuroprotection (relative to sham-operated control) [2]	pIC50 [3]	pIC50 [4]	other results
NC1CCN(O)C1=O (stereo not shown) [HA-966]	reversed by D-serine				inhibition of the secondary PSs (NMDA receptor [1]): inhibit the secondary PSs
NC(CCCP(=O)(O)O)C(=O)O (stereo not shown) [APV]	not reversed by D-serine				
O=C(O)c1cc(O)c2ccc(Cl)cc2n1 [7-chlorokynurenic acid]	reversed by D-serine				inhibition of the secondary PSs (NMDA receptor [1]): inhibit the secondary PSs
O=c1[nH][nH]c(=O)c2c(O)c3c(Cl)cc(Cl)cc3nc12 [Example 4, 7,9-Dichloro-2,3-dihydro-10-hydroxypyridazino[4,5-b]quinoline-1,4-dione]		Over 70%	5.64	7.10	
O=c1[nH][nH]c(=O)c2c(O)c3ccc([N+](=O)[O-])cc3nc12 [Example 11, 2,3-Dihydro-10-hydroxy-7-nitropyridazino[4,5-b]quinoline-1,4-dione]		over 60%	4.07	5.07	
c1ccc(C2(N3CCCCC3)CCCCC2)cc1 [PCP]	not reversed by D-serine				
O=c1[nH][nH]c(=O)c2c(O)c3ccc(Cl)cc3nc12 [Example 2, 7-Chloro-2,3-dihydro-10-hydroxypyridazino[4,5-b]quinoline-1,4-dione]		Over 70%	5.68	6.62	antagonism in the hippocampal slice test (inhibition of secondary population spikes) (NMDA receptor [5]): antagonist; reversal of the inhibition by D-serine (NMDA receptor [5]): reversed by D-serine
C[C@]12N[C@H](Cc3ccccc31)c1ccccc12 [MK-801]	not reversed by D-serine				
O=C(O)C1CN(CCCP(=O)(O)O)CCN1 (stereo not shown) [CPP]	not reversed by D-serine				
